Assay results reported in patent US20100119479A1, “THERAPEUTIC ANTIVIRAL PEPTIDES” (INTERMUNE, INC., priority 2008, published 2010).
pEC50, pIC50: −log10 of the molar value.

How the values were obtained:
[1] = target: T1, full-length NS3/NS4A-2 (HCV NS3 protease) (Hepatitis C virus genotype 1b, UniProt Q9WMX2); assay: NS3 Inhibition Assay (NS3-NS4 protease assay, RETS1 substrate); format: biochemical; conditions: NS3/NS4A-2 protease
T1 construct: Recombinant E. coli or Baculovirus full-length NS3; host or cells: E. coli or baculovirus (BV) expression
T1 sequence (Q9WMX2 1027-1657): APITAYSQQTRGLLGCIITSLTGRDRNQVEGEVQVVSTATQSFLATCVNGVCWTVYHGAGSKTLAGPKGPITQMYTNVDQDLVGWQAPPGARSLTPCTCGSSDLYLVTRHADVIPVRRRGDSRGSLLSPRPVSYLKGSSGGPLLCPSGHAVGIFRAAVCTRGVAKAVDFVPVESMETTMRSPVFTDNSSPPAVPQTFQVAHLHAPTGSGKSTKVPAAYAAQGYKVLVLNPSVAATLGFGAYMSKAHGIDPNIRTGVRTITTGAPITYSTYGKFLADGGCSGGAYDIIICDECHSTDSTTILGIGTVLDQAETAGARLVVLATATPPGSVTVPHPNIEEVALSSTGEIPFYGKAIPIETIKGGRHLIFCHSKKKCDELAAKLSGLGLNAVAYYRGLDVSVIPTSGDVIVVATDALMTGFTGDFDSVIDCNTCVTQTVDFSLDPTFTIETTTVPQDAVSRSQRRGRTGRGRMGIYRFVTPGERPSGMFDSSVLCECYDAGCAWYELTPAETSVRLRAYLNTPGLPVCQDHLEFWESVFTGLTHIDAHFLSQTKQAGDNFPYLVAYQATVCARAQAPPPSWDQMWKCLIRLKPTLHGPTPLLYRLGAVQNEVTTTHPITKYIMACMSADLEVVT
T1 sequence (Q9WMX2 1658-1711): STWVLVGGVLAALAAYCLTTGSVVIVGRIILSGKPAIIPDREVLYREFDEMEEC
Protocol: NS3 Complex Formation with NS4A-2.
Recombinant E. coli or Baculovirus full-length NS3 was diluted to 3.33 μM with assay buffer and transferred material to an eppendorf tube and placed in a water bath in a 4° C. refrigerator. The appropriate amount of NS4A-2 diluted to […] in assay buffer was added to equal the volume of NS3 above (conversion factor—3.8 mg/272 μL assay buffer). The material was transferred to an eppendorf tube and placed in water bath in a 4° C. refrigerator.
After equilibration to 4° C., equal volumes of NS3 and NS4A-2 solutions were combined in an eppendorf tube, mix gently with a manual pipettor, and incubate mixture for 15 minutes in the 4° C. water bath. Final concentrations in the mixture are 1.67 μM NS3, 4.15 mM NS4A-2 (2485-fold molar excess NS4A-2).
After 15 minutes at 4° C., the NS3/NS4A-2 eppendorf tube was removed and place it in a room temperature water bath for 10 minutes. NS3/NS4A-2 was aliquoted at appropriate volumes and store at −80° C. (E. coli NS3 run at 2 nM in assay, aliquot at 25 μL. BV NS3 run at 3 nM in assay, aliquot at 30 μL).
Step a. Sample compounds were dissolved to 10 mM in DMSO then diluted to 2.5 mM (1:4) in DMSO. Typically, compounds were added to an assay plate at 2.5 mM concentration, yielding upon dilution a starting concentration of 50 microM in the assay inhibition curve. Compounds were serial diluted in assay buffer to provide test solutions at lower concentrations.
Step b. The E. coli. NS3/NS4A-2 was diluted to 4 nM NS3 (1:417.5 of 1.67 μM stock−18 μL1.67 μM stock+7497 μL assay buffer). The BV NS3/NS4A-2 was diluted to 6 nM NS3 (1:278.3 of 1.67 μM stock−24 μL1.67 μM stock+6655 μL assay buffer).
Step c. Using the manual multichannel pipettor, and being careful not to introduce bubbles into the plate, 50 μL assay buffer were added to wells A01-H01 of a black Costar 96-well polypropylene storage plate.
Step d. Using the manual multichannel pipettor, and being careful not to introduce bubbles into the plate, 50 μL of diluted NS3/NS4A-2 from Step b were added to wells A02-H12 of the plate in Step c.
Step e. Using the manual multichannel pipettor, and being careful not to introduce bubbles into the plate, 25 μL of the wells in drug dilution plate in Step a were transferred to corresponding wells in assay plate in Step d. The tips on the multichannel pipettor were changed for each row of compounds transferred.
Step f Using the manual multichannel pipettor, and being careful not to introduce bubbles into the plate, the contentes of the wells from the assay plate in Step e were mixed by aspirating and dispensing 35 μL of the 75 μL in each well five times. The tips on multichannel pipettor were changed for each row of wells mixed.
Step g. The plate was covered with a polystyrene plate lid, and the plate from Step f containing NS3 protease and sample compounds was pre-incubated 10 minutes at room temperature.
While plate from Step g is pre-incubating, the RETS1 substrate was diluted in a 15 mL polypropylene centrifuge tube. The RETS1 substrate was diluted to 8 μM (1:80.75 of 646 μM stock—65 μL 646 μM stock+5184 μL assay buffer).
After the plate in Step g was done pre-incubating, and using the manual multichannel, 25 μL of substrate were added to all wells on the plate. The contents of the wells of the plate were quickly mixed, as in Step f, mixing 65 μL of the 100 μL in the wells.
The plate was read in kinetic mode on the Molecular Devices SpectraMax Gemini XS plate reader. Reader settings: Read time: 30 minutes, Interval: 36 seconds, Reads: 51, Excitation λ: 335 nm, Emission λ: 495 nm, cutoff: 475 nm, Automix: off, Calibrate: once, PMT: high, Reads/well: 6, Vmax pts: 21 or 28/51 depending on length of linearity of reaction
IC50s are determined using a four parameter curve fit equation, and converted to Ki's using the following Km's: […]
Full-length E. coli NS3−2.03 μM
Full-length BV NS3−1.74 μM
where Ki=IC50/(1+[S]/Km))

[2] = test system: HCV sub-genomic replicon, GS4.3 (HuH-7 hepatoma cells); assay: Quantitation by ELISA of NPTII in the HCV sub-genomic replicon, GS4.3; format: cell-based; conditions: Hepatitis C virus, GS4.3 replicon cells, 72 h incubation
Description: Quantitation by ELISA of the Selectable Marker Protein, Neomycin Phosphotransferase II (NPTII) in the HCV Sub-Genomic Replicon, GS4.3
The HCV sub-genomic replicon (1377/NS3-3′, accession No. AJ242652), stably maintained in HuH-7 hepatoma cells, was created by Lohmann et al. Science 285: 110-113 (1999). The replicon-containing cell culture, designated GS4.3, was obtained from Dr. Christoph Seeger of the Institute for Cancer Research, Fox Chase Cancer Center, Philadelphia, Pa.
GS4.3 cells were maintained at 37° C., 5% CO2, in DMEM (Gibco 11965-092) supplemented with L-glutamine 200 mM (100×) (Gibco25030-081), non-essential amino acids (NEAA)(Biowhittaker 13-114E), heat-inactivated (HI) Fetal Bovine Serum(FBS)(Hyclone SH3007.03) and 750 μg/mL geneticin (G418)(Gibco 10131-035). Cells were sub-divided 1:3 or 4 every 2-3 days.
24 h prior to the assay, GS4.3 cells were collected, counted, and plated in 96-well plates (Costar 3585) at 7500 cells/well in […] standard maintenance medium (above) and incubated in the conditions above. To initiate the assay, culture medium was removed, cells were washed once with PBS (Gibco 10010-023) and 90 μl Assay Medium (DMEM, L-glutamine, NEAA, 10% HI FBS, no G418) was added. Inhibitors were made as a 10× stock in Assay Medium, (3-fold dilutions from 10 μM to […] final concentration, final DMSO concentration 1%), […] were added to duplicate wells, plates were rocked to mix, and incubated as above for 72 h.
An NPTII Elisa kit was obtained from AGDIA, Inc. (Compound direct ELISA test system for Neomycin Phosphotransferase II, PSP 73000/4800). Manufacturer's instructions were followed, with some modifications. 10×PEB-1 lysis buffer was made up to include 500 μM PMSF (Sigma P7626, 50 mM stock in isopropanol). After 72 h incubation, cells were washed once with PBS and […] PEB-1 with PMSF was added per well. Plates were agitated vigorously for 15 minutes, room temperature, then frozen at −70° C. Plates were thawed, lysates were mixed thoroughly, and 100 μl were applied to an NPTII Elisa plate. A standard curve was made. Lysate from DMSO-treated control cells was pooled, serially diluted with PEB-1 with PMSF, and applied to duplicate wells of the ELISA plate, in a range of initial lysate amount of 150 μL-2.5 μL. In addition, 100 μL buffer alone was applied in duplicate as a blank. Plates were sealed and gently agitated at room temperature for 2 h. Following capture incubation, the plates were washed 5×300 μL with PBS-T (0.5% Tween-20, PBS-T was supplied in the ELISA kit). For detection, a 1× dilution of enzyme conjugate diluent MRS-2 (5×) was made in PBS-T, into which 1:100 dilutions of enzyme conjugates A and B were added, as per instructions. Plates were resealed, and incubated with agitation, covered, room temperature, for 2 h. The washing was then repeated and 100 μL, of room temperature TMB substrate was added. After approximately 30 minutes incubation (room temperature, agitation, covered), the reaction was stopped with 50 μL, 3M sulfuric acid. Plates were read at 450 nm on a Molecular Devices Versamax plate reader.
Inhibitor effect was expressed as a percentage of DMSO-treated control signal, and inhibition curves were calculated using a 4-parameter equation: y=A+((B−A)/(1+((C/x)̂D))), where C is half-maximal activity or EC50.

| SMILES | pIC50 [1] | pEC50 [2] |
| --- | --- | --- |
| CC[C@@H]1C[C@]1(NC(=O)[C@@H]1C[C@@H](OC(=O)N2Cc3ccc(NC(=O)COC)cc3C2)CN1C(=O)[C@@H](Nc1cc(F)cc(C(F)(F)F)c1)C(C)(C)C)C(=O)NS(=O)(=O)C1CC1 [Compound 19] | > 7.00 | > 7.00 |
| CC[C@@H]1C[C@]1(NC(=O)[C@@H]1C[C@@H](OC(=O)N2Cc3cccc(F)c3C2)CN1C(=O)[C@@H](Nc1cccc(C(F)(F)F)c1)C(C)(C)C)C(=O)NS(=O)(=O)C1(C)CC1 [Compound 290] | > 7.00 | > 7.00 |
| CC[C@@H]1C[C@]1(NC(=O)[C@@H]1C[C@@H](Oc2nc3ccccc3n2CC)CN1C(=O)[C@@H](Nc1cccc(C(F)(F)F)c1)C(C)(C)C)C(=O)NS(=O)(=O)C1(C)CC1 [Compound 232] | > 7.00 | > 7.00 |
| CC[C@@H]1C[C@]1(NC(=O)[C@@H]1C[C@@H](OC(=O)N2Cc3cccc(F)c3C2)CN1C(=O)[C@@H](Nc1cccc(OC(F)(F)F)c1)C(C)(C)C)C(=O)NS(=O)(=O)C1CC1 [Compound 12] | > 7.00 | > 7.00 |
| CC[C@@H]1C[C@]1(NC(=O)[C@@H]1C[C@@H](OC(=O)N2Cc3cccc(Cl)c3C2)CN1C(=O)[C@@H](Nc1cc(F)cc(C(F)(F)F)c1)C(C)(C)C)C(=O)NS(=O)(=O)C1(C)CC1 [Compound 283] | > 7.00 | > 7.00 |
| C=C[C@@H]1C[C@]1(NC(=O)[C@@H]1C[C@@H](Oc2cc(-c3nc(C(C)C)cs3)nc3c(C)c(OC)ccc23)CN1C(=O)[C@@H](Nc1cc(F)cc(C(F)(F)F)c1)C(C)(C)C)C(=O)NS(=O)(=O)N(C)C [Compound 307] | > 7.00 | > 7.00 |
| CC[C@@H]1C[C@]1(NC(=O)[C@@H]1C[C@@H](OC(=O)N2Cc3cccc(F)c3C2)CN1C(=O)[C@@H](Nc1cccc(C(=O)O)c1)C(C)(C)C)C(=O)NS(=O)(=O)C1CC1 [Compound 5] | > 7.00 | < 6.00 |
| CC[C@@H]1C[C@]1(NC(=O)[C@@H]1C[C@@H](OC(=O)N2Cc3cccc(F)c3C2)CN1C(=O)[C@@H](Nc1cccc(C(=O)NCCN(C)C)c1)C(C)(C)C)C(=O)NS(=O)(=O)C1CC1 [Compound 13] | > 7.00 | < 6.00 |
| C=C[C@@H]1C[C@]1(NC(=O)[C@@H]1C[C@@H](OC(=O)N2Cc3cccc(F)c3C2)CN1C(=O)[C@@H](Nc1cc(F)cc(C(F)(F)F)c1)C(C)(C)C)C(=O)NS(=O)(=O)C1(C)CC1 [Compound 288] | > 7.00 | > 7.00 |
| CC[C@@H]1C[C@]1(NC(=O)[C@@H]1C[C@@H](OC(=O)N2Cc3ccc(NCCN4CCOCC4)cc3C2)CN1C(=O)[C@@H](Nc1cc(F)cc(C(F)(F)F)c1)C(C)(C)C)C(=O)NS(=O)(=O)C1(C)CC1 [Compound 314] | > 7.00 | > 7.00 |
| CC[C@@H]1C[C@]1(NC(=O)[C@@H]1C[C@@H](OC(=O)N2Cc3cccc(F)c3C2)CN1C(=O)[C@@H](Nc1ccc(S(=O)(=O)N2CCNCC2)cc1)C(C)(C)C)C(=O)NS(=O)(=O)C1CC1 [Compound 17] | > 7.00 | < 6.00 |
| CC[C@@H]1C[C@]1(NC(=O)[C@@H]1C[C@@H](OC(=O)N2Cc3cccc(F)c3C2)CN1C(=O)[C@@H](Nc1ccc(-n2cccn2)cc1)C(C)(C)C)C(=O)NS(=O)(=O)C1CC1 [Compound 16] | > 7.00 | 6.00 to 7.00 |
| CC[C@@H]1C[C@]1(NC(=O)[C@@H]1CC(Oc2cc(-c3nc(C(C)C)cs3)nc3c(C)c(OC)ccc23)CN1C(=O)[C@@H](Nc1cccc(C(F)(F)F)c1)C(C)(C)C)C(=O)NS(=O)(=O)C1(C)CC1 (stereo partly drawn) [Compound 336] | > 7.00 | > 7.00 |
| CC(C)(C)[C@H](Nc1cccc(C(F)(F)F)c1)C(=O)N1C[C@H](OC(=O)N2Cc3cccc(Cl)c3C2)C[C@H]1C(=O)N[C@]1(C(=O)NS(=O)(=O)C2(C)CC2)C[C@H]1C1CC1 [Compound 303] | > 7.00 | > 7.00 |
| CC[C@@H]1C[C@]1(NC(=O)[C@@H]1C[C@@H](OC(=O)N2Cc3cccc(F)c3C2)CN1C(=O)[C@@H](Nc1cccc(C(=O)N2CCN(C)CC2)c1)C(C)(C)C)C(=O)NS(=O)(=O)C1CC1 [Compound 8] | > 7.00 | < 6.00 |
| CC[C@@H]1C[C@]1(NC(=O)[C@@H]1C[C@@H](OC(=O)N2Cc3cccc(F)c3C2)CN1C(=O)[C@@H](Nc1ccc(C(=O)OC)cc1)C(C)(C)C)C(=O)NS(=O)(=O)C1CC1 [Compound 2] | > 7.00 | 6.00 to 7.00 |
| CC[C@@H]1C[C@]1(NC(=O)[C@@H]1C[C@@H](Oc2cc(-c3nc(C(C)C)cs3)nc3c(C)c(OC)ccc23)CN1C(=O)[C@@H](Nc1ccccc1[N+](=O)[O-])C(C)(C)C)C(=O)NS(=O)(=O)C1CC1 [Compound 350] | < 6.00 | > 7.00 |
| CC[C@@H]1C[C@]1(NC(=O)[C@@H]1C[C@@H](OC(=O)N2Cc3cccc(F)c3C2)CN1C(=O)[C@@H](Nc1cccc(S(=O)(=O)N2CCOCC2)c1)C(C)(C)C)C(=O)NS(=O)(=O)C1CC1 [Compound 10] | > 7.00 | < 6.00 |
